Test results reported in patent US20080081781A1, “Methods and compositions for the treatment of metabolic syndrome” (priority 2004, published 2008).
Where a name gives a salt, the structure may show the parent alone. Read-outs that look alike come from different tables or passages of the source.

Assays:
[1] = Pharmacokinetics of 3H-berberine in rabbits, intravenous and intravenous drip
Method: 0.1 ml of blood was removed at various times and radiation emissions were measured.

[2] = Tissue distribution of 3H-berberine in mice; assay type: in vivo, mouse; settings: tail vein 135 LBq/10 g, 5 minutes to 2 hours
Method: Tissue radiation emission was measured 5 minutes to 2 hours after administration with the distribution of the berberine concentrations from highest to lowest being: lung>liver>kidney>spleen>heart>intestine>stomach>brain.

[3] = Excretion of berberine in rats (urine, fecal matter, gall bladder secretions); assay type: in vivo, rat; settings: rats, oral 3H-berberine, forty-eight hours
Method: In a final series of animal model studies, rats were orally administered 3H-berberine. Forty-eight hours after administration, excretions were tested for the presence of berberine. 2.7% of the oral dose was measured in the urine and 86% of the oral dose was measured in the fecal matter.
Rats received intravenous berberine (9.25 MBq/kg). Six days accumulation of rat urine and fecal secretions were measured for the presence of berberine. 73% of the intravenous dose of the berberine was found in the accumulated urine in both metabolized and unmetabolized forms. 10.9% of the intravenous dose was found in the fecal matter.
Three rats were given berberine (9.25 MBq/kg) intravenously. After 24 hours, gall bladder secretions were collected and evaluated for the presence of berberine. There was 10.1±0.9% (x±SD, n=3) of berberine in the gall bladder secretions.

[4] = Distill Water; amount of solute 10 mg
LDLR mRNA = experiment: Kinase inhibitors on berberine-induced LDLR mRNA in HepG2 cells (RT-PCR); assay type: cell-based, human; settings: HepG2, inhibitor 1 hour before 7.5 μg berberine 8 hours; calphostin C 0.2 μM
Method: (§1) To explore the pathway responsible for the berberine-induced InsR gene transcription, different kinase inhibitors were used, including the MEK1-ERK inhibitor U0126, the p38 kinase inhibitor SB203580, the c-Jun N-terminal kinase inhibitor curcumin, the PI-3 kinase inhibitor wortmannin, and the PKC inhibitor calphostin C.
(§2) HepG2 cells were pretreated with each of the inhibitors 1 hour prior to treatment with 7.5 μg of berberine for 8 hours. Total RNA was then isolated and the relative amount of InsR and LDLR mRNA was measured by quantitative RT-PCR as described in Example XVII. It was determined that the activity of berberine on InsR gene transcription was most sensitive to the PKC inhibitor calphostin C.

InsR mRNA = experiment: Kinase inhibitors on berberine-induced InsR gene transcription in HepG2 cells (RT-PCR); assay type: cell-based, human; settings: HepG2, inhibitor 1 hour before 7.5 μg berberine 8 hours; calphostin C 0.2 μM
Method: as §1, §2

hyperlipidemia patients = settings: three months
Method: After three months, fasting serum concentrations of cholesterol, triglycerides, HDL and LDL were measured using standard blood lipid tests.

rat model subjects = experiment: Combinatorial anti-hyperlipidemia efficacy of berberine and lovastatin in rats (Table 9); assay type: in vivo
[5] = test system: patients with type 2 diabetes; assay type: in vivo, human; settings: patients with type 2 diabetes, Mean ± SE
Description: Ninety-seven hyperglycemic patients (54 males and 43 females) with fasting blood glucose>7 mmol/L and post-prandial blood glucose>11.1 mmol/L were enrolled in a study at the Nanjing First Hospital in Nanjing, China. The patients were asked to end any current treatments for hyperglycemia at least 2 weeks prior to commencement of the study.
Fifty of the patients (male/female, 27/23; age 57±8y) were randomly assigned to be given 0.5 gram twice a day (1g/day total) of berberine (Nanjing Second Pharmaceutics, Inc., Nanjing, China), orally for 2 months. Out of these 50 patients, 25 had hyperlipidemia, 9 had hypertension and 2 had cardiovascular disease. Twenty-six patients (male/female, 15/11; age 56±11 y) were given 1.5 grams of metformin (Double-Crane Pharmaceutical, Inc., Beijing, China) per day, orally for two months. Of these twenty-six patients, 11 had hyperlipidemia, and four had hypertension. The remaining twenty-one patients (male/female, 11/10, age 49±10 y) were given 4 mg per day of rosiglitazone (Glaxowelcome, UK), orally for two months. Of these 21 patients, ten had hyperlipidemia and four had hypertension. Metformin and rosiglitazone served as reference controls as they are standard treatments for type 2 diabetes.
Blood samples were taken prior to the commencement of therapy and after completion of the therapy.

[6] = test system: high fat high cholesterol (HFHC) diet rats; experiment: Combination treatment with berberine and simvastatin in HFHC diet rats (Table 8); assay type: in vivo, rat; settings: oral, after 25 days, daily dose berberine 100 mg/kg, simvastatin 25 mg/kg, combination 100 + 25, average ± standard error
Method: Rats were fed a high fat high cholesterol (HFHC) diet for 10 days, and then divided into groups of seven. The rats were then administered berberine or simvastatin, or a combination of berberine and simvastatin orally for 25 days. After 25 days, serum cholesterol, triglyceride and LDL-c levels were measured. […] The combination of simvastatin, and berberine lowered the cholesterol, triglyceride and LDL-c levels further than either alone.

InsR gene promoter = experiment: InsR promoter activity, pGL3-1.5kIRP transfected HepG2 cells; assay type: cell-based, human; settings: pGL3-1.5kIRP transfected HepG2; calphostin C 0.2 μM, berberine 5 μg/ml
Method: The InsR promoter luciferase gene fusion plasmid (pGL3-1.5kIRP) was kindly provided by Dr. Araki E of the Graduate School of Medical Sciences, Kumamoto University, Honjo, Kumamoto, Japan.
After overnight incubation, the cells were treated with DMSO as the solvent control or with 0, 1, 2.5, 5, 7.5 and 10 μg/ml berberine for 8 h. Cell lysates were prepared and luciferase activities were measured using the Luciferase Reporter Gene Assay (Roche Applied Science). The experiment was repeated 4 times.

LDLR promoter = LDLR promoter activity, pLDLR234Luc reporter in HepG2 cells; assay type: cell-based, human; settings: pLDLR234Luc HepG2, LPDS or LPDS and cholesterol medium, 8 hour treatment
Description: HepG2 cells were transfected with the reporter construct pLDLR234Luc, which contains the SRE- I motif and the sterol-independent regulatory element that mediates the cytokine oncostatin M-induced transcription of the LDLR gene.

[7] = 0.5 g twice a day, all treated patients (n=63)
[8] = only participants neither on drugs nor special diets
[9] = high fat diet rats treated for 15 days, berberine 80 mg/kg/day, lovastatin 10 mg/kg/day
[10] = high fat diet rats, Day 0 (untreated rats, baseline)
[11] = After treatment (2 months), oral: berberine 1 g/day, metformin 1.5 g/day, rosiglitazone 4 mg/day

## 3H-berberine
[1]; 5 rabbits, intravenously 25 MBq/kg
  Vd: 20 ± 3 L/kg
[1]; four rabbits, intravenous drip 46.25 Mbq/kg
  Vd: 22.1 ± 1.7 L/kg
[2]
  distribution of concentrations in tissues, highest to lowest: lung>liver>kidney>spleen>heart>intestine>stomach>brain
[3]
  oral dose measured in the fecal matter: 86%
  oral dose measured in the urine: 2.7%

## CC(=O)[O-].COc1ccc2cc3[n+](cc2c1OC)CCc1cc2c(cc1-3)OCO2 [3. Acetate]
[4]
  Amount of Solvent: 9.0

## CC(O)C(=O)[O-].COc1ccc2cc3[n+](cc2c1OC)CCc1cc2c(cc1-3)OCO2 [4. Lactate]
[4]
  Amount of Solvent: 6.0

## COc1ccc2cc3[n+](cc2c1OC)CCc1cc2c(cc1-3)OCO2.CS(=O)(=O)[O-] [6. Methanesulfonate]
[4]
  Amount of Solvent: 1.5

## COc1ccc2cc3[n+](cc2c1OC)CCc1cc2c(cc1-3)OCO2.O=S(=O)([O-])O [7. Hydrosulfate]
[4]
  Amount of Solvent: 1.5

## COc1ccc2cc3[n+](cc2c1OC)CCc1cc2c(cc1-3)OCO2.COc1ccc2cc3[n+](cc2c1OC)CCc1cc2c(cc1-3)OCO2.O=S(=O)([O-])[O-] [8. Sulfate]
[4]
  Amount of Solvent: 0.5

## COc1ccc2cc3[n+](cc2c1OC)CCc1cc2c(cc1-3)OCO2.O=C([O-])c1ccccc1 [13. Benzoate]
[4]
  Amount of Solvent: 7.0

## COc1ccc2cc3[n+](cc2c1OC)CCc1cc2c(cc1-3)OCO2.Cc1ccc(S(=O)(=O)[O-])cc1 [15. Toluenesulfonate]
[4]
  Amount of Solvent: 11.0

## COc1ccc2cc3[n+](cc2c1OC)CCc1cc2c(cc1-3)OCO2.O=C([O-])C(F)(F)F [16. Trifluoroacetate]
[4]
  Amount of Solvent: 7.5

## N#CC(=C(/N)Sc1ccccc1N)/C(C#N)=C(\N)Sc1ccccc1N [U0126]
LDLR mRNA
  effect of inhibitor on berberine-increased level of LDLR mRNA: completely abolished
InsR mRNA
  effect of inhibitor on the activity of berberine on InsR gene transcription: did not effect

## COc1ccc2cc3[n+](cc2c1OC)CCc1cc2c(cc1-3)OCO2 [berberine hydrochloride]
Hyperlipidemia patients; [7]
  lowering of serum LDL: 20%
  lowering of serum cholesterol: 18%
  lowering of serum triglycerides: 28%
Hyperlipidemia patients; [8]
  decrease of serum LDL: 25%
  decrease of serum cholesterol: 29%
  decrease of serum triglycerides: 35%

## CC[C@H](C)C(=O)O[C@H]1C[C@@H](C)C=C2C=C[C@H](C)[C@H](CC[C@@H]3C[C@@H](O)CC(=O)O3)[C@H]21 [lovastatin, reference compound]
Rat model subjects; [9]
  Cholesterol Day 15: 2.7 mmol/L
  LDL Day 15: 1.62 mmol/L
Rat model subjects; [10]
  Cholesterol Day 0: 3.6 mmol/L
  LDL Day 0: 2.15 mmol/L

## CN(C)C(=N)N=C(N)N [metformin, reference compound]
[5]; [11]
  HbA1c: 7.2 ± 0.3 %
  Triglyceride: 1.6 ± 0.1 mmol/L
[5]; Before treatment (baseline)
  FBG (fasting blood glucose): 10.9 ± 0.5 mmol/L
  HbA1c: 9.4 ± 0.5%
  Triglyceride: 1.7 ± 0.2 mmol/L

## CN(CCOc1ccc(CC2SC(=O)NC2=O)cc1)c1ccccn1 (stereo not drawn) [rosiglitazone, reference compound]
[5]; [11]
  HbA1c: 6.8 ± 0.3 %
  Triglyceride: 1.6 ± 0.1 mmol/L
[5]; Before treatment (baseline)
  FBG (fasting blood glucose): 9.1 ± 0.8 mmol/L
  HbA1c: 8.3 ± 0.4%
  Triglyceride: 1.9 ± 0.3 mmol/L

## CCC(C)(C)C(=O)O[C@H]1C[C@@H](C)C=C2C=C[C@H](C)[C@H](CC[C@@H]3C[C@@H](O)CC(=O)O3)[C@H]21 [simvastatin, reference compound]
[6]
  LDL-c: 1.4 ± 0.1 mmol/L
  Total Cholesterol: 3.6 ± 0.4 mmol/L
  Triglyceride: 2.5 ± 0.3 mmol/L

## Calphostin C
InsR gene promoter
  effect of PKC inhibitor pre-treatment on berberine stimulation of InsR gene promoter: diminished the ability of berberine to stimulate the InsR gene promoter
LDLR mRNA
  effect of inhibitor on berberine-increased level of LDLR mRNA: did not change
InsR mRNA
  effect of inhibitor on the activity of berberine on InsR gene transcription: completely eliminated

B1: oncostatin M: cytokine oncostatin M that induces transcription of the LDLR gene (protein, UniProt P13725 26-221, looked up)
Oncostatin-M: AAIGSCSKEYRVLLGQLQKQTDLMQDTSRLLDPYIRIQGLDVPKLREHCRERPGAFPSEETLRGLGRRGFLQTLNATLGCVLHRLADLEQRLPKAQDLERSGLNIEDLEKLQMARPNILGLRNNIYCMAQLLDNSDTAEPTKAGRGASQPPTPTPASDAFQRKLEGCRFLHGYHRFMHSVGRVFSKWGESPNRSRR
LDLR promoter
  LDLR promoter activity: strongly elevated
